# Laboratory results as given in patent publication US7582681B2, “Synergistic mixtures of 1,2-alkane diols” (Symrise GmbH & Co. KG, priority 2002, dated 2009).
# Legend:
# Assay in all cases: MIC, agar dilution method
# Assay type in all cases: cell-based
# [1] = tested on: Propionibacterium acnes ATCC 11829; conditions: Cutibacterium acnes, ATCC11829, anaerobic, Wilkins-Chalgren agar, 72 h at 30° C.
# Method: Petri dishes 9.0 cm in diameter were charged with 13.5 ml freshly prepared Mueller-Hinton agar (Merck, Ref. 1.05437 or Wilkins-Chalgren agar boullion, Oxoid, Ref. CM 643, supplemented with log agar-agar/liter) kept liquid at 50° C., to which the various concentrations of the diluted samples were added in 10% (V/V)=1.5 ml. Mueller-Hinton agar that contained 3% Tween80 (Merck, Ref. 8.22 187) was used for the test germ Malassezia furfur. In each case 5 ml of the samples were diluted in distilled water and made up to 10 ml. The further test concentrations of the particular dilution series, which were prepared in the form of geometric series, were prepared by progressive 1:2 dilution of this batch with distilled water. […] Two agar plates were poured per test concentration and nutrient medium. After solidification and drying (approx. 1 h at 37° C.), the test plates were inoculated in point form with, in each case, 1 μl of the test germ suspensions listed below. To check purity and identity the bacteria that grow aerobically (Brevibacterium epidermidis, Corynebacterium xerosis, Staphylococcus epidermidis) were [lacuna] on Columbia blood agar (BioMérieux, Ref. 43049). […] Minimal, barely visible growth or few small individual colonies were evaluated as inhibition.
# [2] = tested on: Staphylococcus epidermidis ATCC 12228; conditions: ATCC12228, Mueller-Hinton agar, 18 h at 36° C.
# Method: (§1) Petri dishes 9.0 cm in diameter were charged with 13.5 ml freshly prepared Mueller-Hinton agar (Merck, Ref. 1.05437 or Wilkins-Chalgren agar boullion, Oxoid, Ref. CM 643, supplemented with log agar-agar/liter) kept liquid at 50° C., to which the various concentrations of the diluted samples were added in 10% (V/V)=1.5 ml. Mueller-Hinton agar that contained 3% Tween80 (Merck, Ref. 8.22 187) was used for the test germ Malassezia furfur. In each case 5 ml of the samples were diluted in distilled water and made up to 10 ml. The further test concentrations of the particular dilution series, which were prepared in the form of geometric series, were prepared by progressive 1:2 dilution of this batch with distilled water. […] Two agar plates were poured per test concentration and nutrient medium. After solidification and drying (approx. 1 h at 37° C.), the test plates were inoculated in point form with, in each case, 1 μl of the test germ suspensions listed below. To check purity and identity the bacteria that grow aerobically (Brevibacterium epidermidis, Corynebacterium xerosis, Staphylococcus epidermidis) were [lacuna] on Columbia blood agar (BioMérieux, Ref. 43049). The mould Aspergillus niger, the yeast Candida albicans and the two skin fungi Trichophyton mentagrophytes and Epidermophyton floccosum were cultured on Sabouraud agar (BioMérieux, Ref. 43555). Malassezia furfur was cultured on Sabourad HLT agar with disinhibitors (addition of 3% Tween80: 1%; lecithin: 0.3%; histidine: 0.1%; Merck, Ref. 1.18368). Propionibacterium acnes was cultured on Schaedler agar (BioMérieux, Ref. 43273). Further details on the test germs can be taken from Table 5. The preparation of the test germ suspensions of the bacterial germs that grow aerobically was carried out by incubation of Mueller-Hinton broth (Merck, Ref. 1.10293) which had been inoculated with a few individual colonies of the relevant test germs, at 36° C. After a distinct turbidity had been obtained, sterile nutrient broth was added to the suspensions in such an amount that the turbidity thereof corresponded to McFarland standard 0.5 (approx. 1.5×10^8 CFU/ml). All test germ suspensions with the exception of Propionibacterium acnes were diluted again 1:10 with sterile broth and the germ count thereof was determined by the surface method using a Spiralometer (results: see Table 5). The MIC (minimum inhibitory concentration) was regarded as the lowest concentration of active compound at which macroscopically there is no growth. Minimal, barely visible growth or few small individual colonies were evaluated as inhibition.
# [3] = tested on: Brevibacterium epidermidis ATCC 35514; conditions: ATCC35514, Mueller-Hinton agar, 18 h at 36° C.
# Method: as §1
# [4] = tested on: Corynebacterium xerosis ATCC 7711; conditions: ATCC7711, Mueller-Hinton agar, 18 h at 36° C.
# Method: as §1
SMILES,MIC [1] [mg/mL],MIC [2] [mg/mL],MIC [3] [mg/mL],MIC [4] [mg/mL]
"CCCCC(O)CO (centres unmarked) [HE3, 1,2-hexanediol]",25,25,25,12.5
"CCCCCCC(O)CO (centres unmarked) [OC3, 1,2-octanediol]",6.25,12.5,3.12,6.25
